Measurements published in US20070071780A1, “Personal care composition comprising a perfume booster accord” (priority 2005, published 2007).

Tested on: human nose
Test: Odor intensity evaluation by panelists and Human Recognition Slope Factor (HRSF) calculation in DPG
Conditions: for HRSF (Human Recognition Slope Factor = Ii/xi) / Ii (maximum intensity in a given media) / xi (lowest concentration to reach maximum intensity): low hydrophobic media (DPG); for Odor Intensity (I): average of 25 panelists, in DPG
Description: The Human Recognition Slope Factor (HRSF) is a tool in choosing the most efficient high odor value materials to create perfume booster accords. […] The higher the number, the more efficient the material will be.
The HRSF identifies the behavior of perfume materials through the relevant range of concentrations in a given product. The calculation process of the HRSF also defines the concentration where the high odor value material reaches its maximum intensity in a given media.
The HRSF is determined by the following calculations: HRSF=Ii/xi wherein: HRSF=Human Recognition Slope Factor; Ii is the maximum intensity that a high odor value material delivers in a given media; and xi is the lowest concentration of the high odor value material to reach maximum intensity.
The value of Ii and xi are calculated using the following two equations. The first equation (I) describes the intensity of a high odor value material across a broad range of concentrations. The second equation (VI) allows one to find the maximum concentration when both mathematical equations reach the same intensity value. I=a/(1+(x/c)ˆb) (I) wherein: I is the Intensity of the high odor value material; x is the concentration of the material; and a, b, and c are experimental constants for each high odor value material.
The experimental constants of “a, b, and c” are generated by performing a non linear regression analysis using commercially available software. One software package useful in performing the non linear regression analysis is GraphPad Prism 4 for Windows, available from GraphPad Software, Inc., San Diego Calif.
Odor evaluations of each raw material are conducted among at least 25 people. Each material is diluted to a given concentration, and panelists are requested to grade the smell using a numeric scale (Low: 0-15, Slight: 16-30, Moderate: 31-50, Strong: 51-70, Very Strong: 71-up). Internal controls containing Benzyl salicylate, Citronellol and Ethyl 2 Methyl Butyrate are used to define the standard intensity for each range.
An illustration of how the non linear regression analysis works is described below. In the following example, the material Alpha Damascone was used for illustrative purposes. The experimental data from 25 panelists indicate that the average value for each observation of Alpha Damascone in DPG is as follows:
The goal of the software package is to minimize the sum of the squares of the vertical distances of the points from the curve. The software prompts the user to perform the following steps to run an iterative process that allows one to find the values of a, b, and c. The R^2 factor (shown below) will indicate if the objective of minimizing the sum of the squares of the vertical distances of the points from the curve was achieved. The closer the R^2 factor is to 1.0, the better the “best-fit values” will be.
The software generates the curve defined by the initial values, calculates the sum-of-squares (the sum of the squares of the vertical distances of the points from the curve), adjusts the variables to make the curve come closer to the data points, adjusts the variables again so that the curve comes even closer to the points, keeps adjusting the variables until the adjustments make virtually no difference in the sum-of-squares and reports the best-fit results.
The “best fit values” are the “a, b, and c” values used in all the equations described herein. Once the “a, b, and c” values are determined, proceed with the following equations.
By definition, the curve that describes that Intensity and its differential curve will meet at the point where a given material delivers the maximum intensity with the minimum mass. Therefore, the next step is to calculate the intersection point by solving the following equation: (ab(xi/c)ˆb)/(x((x/c)ˆb+1)ˆ2=a/(1+(x/c)ˆb) (V)
Therefore, (ab(xi/c)ˆb)/(xi((xi/c)ˆb+1)ˆ2−a/(1+(xi/c)ˆb)=0 (VI) […]

Molecule | HRSF (Human Recognition Slope Factor = Ii/xi) | Ii (maximum intensity in a given media) | xi (lowest concentration to reach maximum intensity) | further results
CCCCCCCCCCCC=O [Lauric Ald] | 1,409 | 67.33 | 0.0478 | –
Hexahydro-4,7methano-1H-inden-5(or 6)-yl propionate [Frutene] | 738 | 80.35 | 0.1089 | –
CCCCCCCCCC=O [Decyl Aldehyde] | 1,098 | 54.35 | 0.0495 | –
Methyl Cedrylone | 811 | 84.44 | 0.1041 | –
CC(=O)OC1CC2CC1C1CC=CC21 (stereo not shown) [Tricyclo decenyl acetate] | 1,379 | 46.74 | 0.0339 | –
CC(=O)C=CC1=C(C)CCCC1(C)C [Ionone Beta, 4-(2,6,6-Trimethyl-1-cyclohexenyl)-3-butenone-2] | 15,451 | 47.90 | 0.0031 | –
CC(=O)OC(C)c1ccccc1 (stereo not shown) [Methyl Phenyl Carbinyl Acetate] | 756 | 50.63 | 0.067 | –
CC1(C)CCC[C@]2(C)[C@H]3CCO[C@]3(C)CC[C@@H]12 [Ambroxan, (3aR-(3aalpha,5abeta,9aalpha,9bbeta))-dodecahydro-3a,6,6,9a-tetramethyl naphtha(2,1-b)furan] | 7,675 | 68.31 | 0.0089 | –
C/C=C\C(=O)C1C(C)=CCCC1(C)C (stereo not drawn) [Alpha Damascone] | 2,034 | 62.86 | 0.0309 | Odor Intensity (I) (Concentration (X) 0.0004): 5; Odor Intensity (I) (Concentration (X) 0.0022): 15; Odor Intensity (I) (Concentration (X) 0.0032): 25; Odor Intensity (I) (Concentration (X) 0.0044): 35; Odor Intensity (I) (Concentration (X) 0.0072): 50; Odor Intensity (I) (Concentration (X) 0.0092): 55; Odor Intensity (I) (Concentration (X) 0.0170): 60
Cc1ccc2c(c1)OCC(=O)CO2 [Calone 1951, Methyl-3,4-dioxy(cylcoacetonyl) benzene] | 1,030 | 71.88 | 0.0698 | –
CC(=O)/C=C/C1C(C)=CCCC1(C)C (stereo not shown) [Ionone Apha, 3-buten-2-one, 4-(2,6,6-trimethyl-2-cyclohexen-1-yl), (E)] | 1,157 | 91.99 | 0.0795 | –
CC1=CCC(C=CC(C)(C)C(C)O)C1(C)C (stereo not shown) [Polysantol, 3,3-Dimethyl-5-(2,2,3-trimethyl-3-cycloenten-1-yl)-4-penten-2-ol] | 690 | 73.16 | 0.106 | –
CC(=O)OC1CCCCC1C(C)(C)C (stereo not shown) [Verdox, ortho tertiary butyl cyclohexanyl acetate] | 998 | 51.91 | 0.052 | –
CC(=O)C(C)=CC1C(C)=CCCC1(C)C (stereo not shown) [3-buten-2-one, 3-methyl-4-(2,6,6-trimethyl-2-cyclohexen-1-yl)] | 1,204 | 85.50 | 0.071 | –
CCC(C)(O)CCCC(C)C (stereo not shown) [Tetra Hydro linalool, Tetra Hydro 3,7-Dimethyl-1,6-octadien-3-ol] | 838 | 53.69 | 0.0641 | –
CCOC(=O)CC1(C)OCCO1 [Fructone, ethyl methyl dioxolane acetate] | 2,243 | 62.36 | 0.0278 | –
